# How the values were obtained:
# Activated CDC42 kinase 1 = Activated CDC42 kinase 1 (Homo sapiens, UniProt Q07912); settings: at 10 µM
# [1] = molecular target: Mitogen-activated protein kinase kinase kinase 1 (Homo sapiens, UniProt Q13233); test: Selectivity interaction (KinomeScan (DiscoverX)) EUB0000229b MAP3K1; settings: at 10 µM
# [2] = molecular target: Serine/threonine-protein kinase 26 (Homo sapiens, UniProt Q9P289); test: Selectivity interaction (KinomeScan (DiscoverX)) EUB0000092b STK26; settings: at 10 µM
# Chain of Serine/threonine-protein kinase 26 (Q9P289 2-416 limits assumed): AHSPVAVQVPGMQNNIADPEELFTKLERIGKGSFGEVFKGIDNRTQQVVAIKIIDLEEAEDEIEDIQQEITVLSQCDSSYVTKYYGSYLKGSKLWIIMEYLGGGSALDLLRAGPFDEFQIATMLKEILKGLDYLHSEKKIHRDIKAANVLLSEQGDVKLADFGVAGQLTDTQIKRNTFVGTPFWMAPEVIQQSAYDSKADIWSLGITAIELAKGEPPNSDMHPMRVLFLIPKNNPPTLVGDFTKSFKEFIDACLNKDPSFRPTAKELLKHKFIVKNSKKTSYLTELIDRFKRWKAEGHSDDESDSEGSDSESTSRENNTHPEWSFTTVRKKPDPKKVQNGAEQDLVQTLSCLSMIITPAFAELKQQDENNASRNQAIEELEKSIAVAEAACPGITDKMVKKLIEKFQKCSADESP
# [3] = molecular target: T1, Serine/threonine-protein kinase D3 (Homo sapiens) (UniProt O94806); test: Selectivity interaction (ProQinase) EUB0000171b PRKD3
# T1 sequence (whole entry): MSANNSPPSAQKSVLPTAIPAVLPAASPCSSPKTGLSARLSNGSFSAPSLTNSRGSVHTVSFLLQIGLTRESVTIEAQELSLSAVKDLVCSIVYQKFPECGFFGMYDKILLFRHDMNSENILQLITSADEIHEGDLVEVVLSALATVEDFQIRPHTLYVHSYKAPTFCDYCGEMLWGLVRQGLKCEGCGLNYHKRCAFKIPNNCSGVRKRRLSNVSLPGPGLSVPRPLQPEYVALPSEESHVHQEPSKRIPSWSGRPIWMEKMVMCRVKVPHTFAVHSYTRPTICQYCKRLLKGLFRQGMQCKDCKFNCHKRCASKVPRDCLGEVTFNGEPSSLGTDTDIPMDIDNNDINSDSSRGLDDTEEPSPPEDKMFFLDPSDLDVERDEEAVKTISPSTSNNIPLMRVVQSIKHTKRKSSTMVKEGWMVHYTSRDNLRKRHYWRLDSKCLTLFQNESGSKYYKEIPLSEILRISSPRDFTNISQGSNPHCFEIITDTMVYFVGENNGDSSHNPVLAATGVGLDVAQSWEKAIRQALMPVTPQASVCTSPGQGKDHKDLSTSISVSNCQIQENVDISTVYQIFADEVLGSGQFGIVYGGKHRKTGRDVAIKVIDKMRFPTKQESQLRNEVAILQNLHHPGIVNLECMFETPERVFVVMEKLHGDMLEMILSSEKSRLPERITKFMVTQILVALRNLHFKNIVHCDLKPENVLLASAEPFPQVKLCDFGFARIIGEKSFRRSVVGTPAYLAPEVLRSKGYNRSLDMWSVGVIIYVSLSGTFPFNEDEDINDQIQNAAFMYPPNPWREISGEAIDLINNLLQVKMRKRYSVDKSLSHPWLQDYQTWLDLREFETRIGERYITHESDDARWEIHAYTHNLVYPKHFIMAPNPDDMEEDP
# Histamine H1 receptor = Histamine H1 receptor (Homo sapiens, UniProt P35367); test: Selectivity interaction (GPCR panel (PDSP screen)) EUB0001079a HRH1; settings: at 10 µM
# Chain of Histamine H1 receptor (P35367 whole entry): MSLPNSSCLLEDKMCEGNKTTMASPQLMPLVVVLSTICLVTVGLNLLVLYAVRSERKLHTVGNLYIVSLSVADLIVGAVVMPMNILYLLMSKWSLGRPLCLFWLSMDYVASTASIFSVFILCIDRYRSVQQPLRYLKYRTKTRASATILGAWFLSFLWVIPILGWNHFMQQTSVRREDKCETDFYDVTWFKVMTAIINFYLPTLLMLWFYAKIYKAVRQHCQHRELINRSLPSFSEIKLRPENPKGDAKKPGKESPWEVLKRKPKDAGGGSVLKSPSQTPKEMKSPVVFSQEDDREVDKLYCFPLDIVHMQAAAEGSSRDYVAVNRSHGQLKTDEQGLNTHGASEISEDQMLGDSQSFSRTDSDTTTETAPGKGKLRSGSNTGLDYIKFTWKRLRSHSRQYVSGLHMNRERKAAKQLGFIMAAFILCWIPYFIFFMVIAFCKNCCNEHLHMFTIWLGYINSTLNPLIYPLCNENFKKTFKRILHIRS
# [4] = test system: Tyrosine-protein kinase ABL1 (Homo sapiens), P00519 [M351T]; settings: at 10 µM
# [5] = molecular target: Casein kinase II subunit alpha (Homo sapiens, UniProt P68400); settings: at 10 µM
# [6] = molecular target: T2, 3-phosphoinositide-dependent protein kinase 1 (Homo sapiens) (UniProt O15530); settings: at 10 µM
# T2 sequence (whole entry): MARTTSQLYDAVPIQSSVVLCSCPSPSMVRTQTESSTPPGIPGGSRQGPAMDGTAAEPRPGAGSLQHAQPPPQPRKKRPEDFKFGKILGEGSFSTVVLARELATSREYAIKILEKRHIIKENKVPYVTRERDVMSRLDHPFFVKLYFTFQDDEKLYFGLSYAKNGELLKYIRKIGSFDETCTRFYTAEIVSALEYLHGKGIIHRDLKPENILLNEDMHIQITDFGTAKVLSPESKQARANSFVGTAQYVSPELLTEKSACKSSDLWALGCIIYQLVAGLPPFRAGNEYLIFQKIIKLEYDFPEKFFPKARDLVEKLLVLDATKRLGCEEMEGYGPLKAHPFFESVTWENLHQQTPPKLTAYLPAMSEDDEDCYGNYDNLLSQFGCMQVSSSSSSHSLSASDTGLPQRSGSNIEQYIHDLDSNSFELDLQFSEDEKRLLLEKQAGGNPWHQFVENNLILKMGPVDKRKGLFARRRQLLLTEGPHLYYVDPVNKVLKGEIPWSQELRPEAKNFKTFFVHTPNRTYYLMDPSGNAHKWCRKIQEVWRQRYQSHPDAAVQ
# [7] = molecular target: T3, Histone-lysine N-methyltransferase SETD7 (Homo sapiens) (UniProt Q8WTS6); test: Selectivity interaction (Transferase panel (protein, RNA, and DNA methyltransferases. and EP300 (acetyltransferase))) EUB0000270b SETD7
# T3 sequence (whole entry): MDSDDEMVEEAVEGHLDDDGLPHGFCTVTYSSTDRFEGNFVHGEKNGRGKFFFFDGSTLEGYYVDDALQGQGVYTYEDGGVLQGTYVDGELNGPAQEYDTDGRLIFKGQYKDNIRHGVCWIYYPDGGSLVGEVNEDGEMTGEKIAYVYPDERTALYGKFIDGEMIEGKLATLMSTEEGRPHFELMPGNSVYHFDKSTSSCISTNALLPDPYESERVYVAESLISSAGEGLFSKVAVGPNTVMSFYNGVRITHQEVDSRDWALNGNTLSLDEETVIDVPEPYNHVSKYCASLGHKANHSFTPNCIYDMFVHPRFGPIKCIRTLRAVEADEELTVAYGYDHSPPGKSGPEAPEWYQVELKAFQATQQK
# [8] = molecular target: Tyrosine-protein kinase JAK2 (Homo sapiens, UniProt O60674); test: Selectivity interaction (SelectScreen profiling (Invitrogen)) EUB0000607a JAK2; settings: at 2 µM
# [9] = molecular target: Serine/threonine-protein kinase 35 (Homo sapiens) (UniProt Q8TDR2); test: Selectivity interaction (KinomeScan (DiscoverX)) EUB0001049a STK35; settings: at 1 µM
# Chain of Serine/threonine-protein kinase 35 (Homo sapiens) (Q8TDR2 whole entry): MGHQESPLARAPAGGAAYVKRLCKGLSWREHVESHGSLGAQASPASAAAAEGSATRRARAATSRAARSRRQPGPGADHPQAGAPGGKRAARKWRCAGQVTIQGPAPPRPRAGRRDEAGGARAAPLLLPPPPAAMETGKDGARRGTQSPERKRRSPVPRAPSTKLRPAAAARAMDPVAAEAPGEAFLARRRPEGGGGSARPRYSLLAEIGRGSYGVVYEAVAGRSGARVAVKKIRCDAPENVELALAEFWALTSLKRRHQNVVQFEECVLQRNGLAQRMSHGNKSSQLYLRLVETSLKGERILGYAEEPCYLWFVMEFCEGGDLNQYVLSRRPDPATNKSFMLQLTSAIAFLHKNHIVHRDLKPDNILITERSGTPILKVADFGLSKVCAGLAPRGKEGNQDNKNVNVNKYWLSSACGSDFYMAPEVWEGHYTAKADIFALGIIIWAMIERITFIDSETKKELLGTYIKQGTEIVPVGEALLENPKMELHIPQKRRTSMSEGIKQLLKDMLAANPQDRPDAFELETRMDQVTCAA
# [10] = molecular target: Cyclin-dependent kinase 13 (Homo sapiens, UniProt Q14004); test: Selectivity interaction (KinomeScan (DiscoverX)) EUB0001049a CDK13; settings: at 1 µM
# Chain of Cyclin-dependent kinase 13 (Q14004 whole entry, looked up): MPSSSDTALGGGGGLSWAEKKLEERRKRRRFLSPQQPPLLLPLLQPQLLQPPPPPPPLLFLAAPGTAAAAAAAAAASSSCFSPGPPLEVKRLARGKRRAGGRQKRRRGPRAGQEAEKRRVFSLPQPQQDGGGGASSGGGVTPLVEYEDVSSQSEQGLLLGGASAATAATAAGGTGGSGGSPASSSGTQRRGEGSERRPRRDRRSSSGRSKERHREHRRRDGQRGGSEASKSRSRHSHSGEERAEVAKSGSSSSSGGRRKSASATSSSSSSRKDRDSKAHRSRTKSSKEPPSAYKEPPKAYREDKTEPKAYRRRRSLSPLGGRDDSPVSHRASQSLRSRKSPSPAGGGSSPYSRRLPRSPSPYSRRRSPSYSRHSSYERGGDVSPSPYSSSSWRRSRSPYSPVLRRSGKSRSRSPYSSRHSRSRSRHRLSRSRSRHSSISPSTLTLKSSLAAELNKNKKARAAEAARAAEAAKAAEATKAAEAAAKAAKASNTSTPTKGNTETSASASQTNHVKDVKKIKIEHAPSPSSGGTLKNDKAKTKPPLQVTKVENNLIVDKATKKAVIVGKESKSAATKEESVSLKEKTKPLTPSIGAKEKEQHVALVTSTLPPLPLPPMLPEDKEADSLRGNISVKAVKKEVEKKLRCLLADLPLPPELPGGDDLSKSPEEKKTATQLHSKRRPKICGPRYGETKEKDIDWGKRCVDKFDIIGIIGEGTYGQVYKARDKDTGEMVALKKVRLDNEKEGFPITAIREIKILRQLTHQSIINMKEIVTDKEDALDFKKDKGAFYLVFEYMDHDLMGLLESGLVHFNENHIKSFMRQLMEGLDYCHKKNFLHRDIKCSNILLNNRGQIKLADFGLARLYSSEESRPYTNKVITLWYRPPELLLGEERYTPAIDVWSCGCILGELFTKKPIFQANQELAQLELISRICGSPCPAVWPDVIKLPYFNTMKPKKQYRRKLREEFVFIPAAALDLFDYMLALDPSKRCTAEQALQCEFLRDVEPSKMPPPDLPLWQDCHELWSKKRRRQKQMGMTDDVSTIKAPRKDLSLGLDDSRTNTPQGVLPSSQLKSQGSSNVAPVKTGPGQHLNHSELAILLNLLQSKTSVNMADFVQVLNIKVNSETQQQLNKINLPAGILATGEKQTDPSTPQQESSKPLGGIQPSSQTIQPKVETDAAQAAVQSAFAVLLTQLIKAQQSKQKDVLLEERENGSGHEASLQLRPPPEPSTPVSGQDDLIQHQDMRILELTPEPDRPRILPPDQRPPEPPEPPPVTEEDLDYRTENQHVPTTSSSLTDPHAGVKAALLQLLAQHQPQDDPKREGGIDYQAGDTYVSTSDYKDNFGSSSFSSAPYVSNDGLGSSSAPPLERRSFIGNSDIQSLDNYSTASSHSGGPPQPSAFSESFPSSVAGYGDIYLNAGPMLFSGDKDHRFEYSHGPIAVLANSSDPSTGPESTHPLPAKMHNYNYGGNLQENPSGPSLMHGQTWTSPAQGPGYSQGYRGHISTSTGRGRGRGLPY
# [11] = molecular target: Dual specificity testis-specific protein kinase 1 (Homo sapiens) (UniProt Q15569); test: Selectivity interaction (KinomeScan (DiscoverX)) EUB0000045b TESK1
# Chain of Dual specificity testis-specific protein kinase 1 (Homo sapiens) (Q15569 whole entry, looked up): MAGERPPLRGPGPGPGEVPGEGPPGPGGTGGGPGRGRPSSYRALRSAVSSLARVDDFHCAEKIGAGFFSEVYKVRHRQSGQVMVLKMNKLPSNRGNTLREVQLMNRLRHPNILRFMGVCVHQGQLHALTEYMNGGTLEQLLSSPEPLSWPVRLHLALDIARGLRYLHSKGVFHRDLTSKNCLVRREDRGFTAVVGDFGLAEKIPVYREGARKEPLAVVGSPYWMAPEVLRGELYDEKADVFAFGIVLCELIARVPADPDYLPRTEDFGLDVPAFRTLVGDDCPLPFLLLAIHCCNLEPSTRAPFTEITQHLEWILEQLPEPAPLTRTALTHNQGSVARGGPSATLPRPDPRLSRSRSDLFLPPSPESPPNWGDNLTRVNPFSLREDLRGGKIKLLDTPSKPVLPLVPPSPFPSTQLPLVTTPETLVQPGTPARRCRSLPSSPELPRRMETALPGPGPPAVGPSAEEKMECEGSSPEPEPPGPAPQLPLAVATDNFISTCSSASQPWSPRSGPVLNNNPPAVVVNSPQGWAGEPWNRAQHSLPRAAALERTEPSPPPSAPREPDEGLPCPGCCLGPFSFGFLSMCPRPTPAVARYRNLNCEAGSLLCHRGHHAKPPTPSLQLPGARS
# [12] = molecular target: T4, Aurora kinase C (Homo sapiens) (UniProt Q9UQB9); test: Selectivity interaction (KinomeScan (DiscoverX)) EUB0000045b AURKC
# T4 sequence (whole entry): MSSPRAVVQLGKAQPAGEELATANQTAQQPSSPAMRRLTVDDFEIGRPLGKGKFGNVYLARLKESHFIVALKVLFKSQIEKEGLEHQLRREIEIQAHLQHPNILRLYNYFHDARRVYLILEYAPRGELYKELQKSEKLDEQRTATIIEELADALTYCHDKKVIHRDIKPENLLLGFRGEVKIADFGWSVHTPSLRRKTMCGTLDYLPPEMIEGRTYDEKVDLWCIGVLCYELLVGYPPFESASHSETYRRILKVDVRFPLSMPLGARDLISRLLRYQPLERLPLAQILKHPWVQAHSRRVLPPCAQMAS
# Chain of Mitogen-activated protein kinase kinase kinase 1 (Q13233 whole entry): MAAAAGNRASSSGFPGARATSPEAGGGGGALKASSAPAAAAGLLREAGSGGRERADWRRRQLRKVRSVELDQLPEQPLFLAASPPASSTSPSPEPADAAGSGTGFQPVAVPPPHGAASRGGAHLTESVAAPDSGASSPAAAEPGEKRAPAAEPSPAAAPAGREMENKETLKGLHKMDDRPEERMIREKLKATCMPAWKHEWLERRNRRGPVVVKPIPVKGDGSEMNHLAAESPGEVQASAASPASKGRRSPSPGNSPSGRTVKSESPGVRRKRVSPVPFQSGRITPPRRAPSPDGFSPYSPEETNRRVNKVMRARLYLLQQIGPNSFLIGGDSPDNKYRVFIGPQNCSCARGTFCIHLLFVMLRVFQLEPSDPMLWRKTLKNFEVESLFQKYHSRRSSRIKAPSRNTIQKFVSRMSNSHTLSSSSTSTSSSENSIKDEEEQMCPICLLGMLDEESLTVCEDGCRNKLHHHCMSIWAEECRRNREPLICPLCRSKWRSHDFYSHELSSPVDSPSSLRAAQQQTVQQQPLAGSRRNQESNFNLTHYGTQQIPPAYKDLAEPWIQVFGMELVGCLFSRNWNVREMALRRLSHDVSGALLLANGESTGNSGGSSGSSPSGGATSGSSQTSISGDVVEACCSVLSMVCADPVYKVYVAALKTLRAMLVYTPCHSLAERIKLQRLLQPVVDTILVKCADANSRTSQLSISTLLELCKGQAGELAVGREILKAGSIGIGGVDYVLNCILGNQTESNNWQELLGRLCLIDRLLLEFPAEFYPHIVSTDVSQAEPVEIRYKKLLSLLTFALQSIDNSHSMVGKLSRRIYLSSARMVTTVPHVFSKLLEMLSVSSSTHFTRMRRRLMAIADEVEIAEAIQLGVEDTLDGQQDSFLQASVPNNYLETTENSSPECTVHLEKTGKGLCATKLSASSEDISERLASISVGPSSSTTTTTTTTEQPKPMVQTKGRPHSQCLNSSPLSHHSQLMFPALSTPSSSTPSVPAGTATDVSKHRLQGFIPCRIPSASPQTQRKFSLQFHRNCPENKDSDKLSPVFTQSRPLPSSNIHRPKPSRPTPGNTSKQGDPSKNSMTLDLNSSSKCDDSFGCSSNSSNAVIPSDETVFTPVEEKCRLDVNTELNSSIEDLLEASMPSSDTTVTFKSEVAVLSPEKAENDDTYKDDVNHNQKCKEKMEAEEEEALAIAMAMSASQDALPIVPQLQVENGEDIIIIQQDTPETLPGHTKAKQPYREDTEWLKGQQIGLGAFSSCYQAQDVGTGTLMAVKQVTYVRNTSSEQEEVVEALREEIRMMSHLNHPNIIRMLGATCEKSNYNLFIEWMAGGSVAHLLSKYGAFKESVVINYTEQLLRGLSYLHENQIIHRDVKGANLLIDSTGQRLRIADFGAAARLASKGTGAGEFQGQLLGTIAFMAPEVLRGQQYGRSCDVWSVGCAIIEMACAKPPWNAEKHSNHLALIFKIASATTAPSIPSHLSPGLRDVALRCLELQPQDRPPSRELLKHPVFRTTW
structure (smiles),measurement,setting,value
CCN(CC)CCCCNc1ncc2cc(-c3cc(OC)cc(OC)c3)c(NC(=O)NC(C)(C)C)nc2n1,% of control,Activated CDC42 kinase 1,100%
COc1cc(N(C)c2ccnc3ccc(C(F)(F)F)cc23)cc(OC)c1OC,% binding,[1],74%
CCC(=O)N1CCN(c2ccc(-n3c(=O)ccc4cnc5ccc(-c6cnc7ccccc7c6)cc5c43)cc2C(F)(F)F)CC1,% of control,[2],89%
C=CC(=O)Nc1cccc(C(=O)Nc2ccc(Nc3cc(-c4[nH]c(SC)nc4C)ccn3)cc2)c1,% of control,[3]; at 1 µM,44%
same,% of control,[3]; at 5 µM,15%
Nc1cnc(N2CCc3cc(S(=O)(=O)Nc4c(F)cc(Cl)cc4F)cc(N4CCCC4=O)c32)nc1 [TP-020n],% of inhibition,Histamine H1 receptor,-2.69%
Cc1cc([C@@H](C)Nc2ccccc2C(=O)O)c2nc(N3CCOCC3)cc(=O)n2c1 [AZD-6482],% of control,[4],94%
same,% of control,[5],100%
same,% of control,[6],100%
Cc1cc(CN)cc(C)c1-c1ncn(C)c1-c1cncn1C,% activity,[7]; at 1 µM,> 90%
same,% activity,[7]; at 10 µM,> 80%
CNC(=O)Nc1ccc(-c2nc(N3CC4CCC(C3)O4)c3cnn(C4CCC5(CC4)OCCO5)c3n2)cc1,% of inhibition,[8],2%
COc1cc(Nc2nc(C)cc(-c3cnn4nc(OC)ccc34)n2)cc(C(F)(F)F)c1,% of control,[9],100%
same,% of control,[10],100%
C=CC(=O)Nc1cc(-n2c(=O)ccc3cnc4ccc(-c5ccc(NS(C)(=O)=O)cc5)cc4c32)ccc1C,% of control,[11]; at 1 µM,94%
same,% of control,[11]; at 10 µM,98%
same,% of control,[12]; at 1 µM,90%
same,% of control,[12]; at 10 µM,63%
